Measured values taken from US9827219B2, “Compositions and methods for lowering levels of high-sensitivity C-reactive protein (HS-CRP) in a subject” (priority 2012, dated 2017).

Tests used:
Type in all cases: in vivo, human
[1] = system: Lp-PLA2; assay: MARINE study, Lp-PLA2; details: MARINE ITT; 2 g/day; week 12
Text: Parameters (a)-(y) can be measured in accordance with any clinically acceptable methodology. For example, triglycerides, total cholesterol, HDL-C and fasting blood sugar can be sample from serum and analyzed using standard photometry techniques. VLDL-TG, LDL-C and VLDL-C can be calculated or determined using serum lipoprotein fractionation by preparative ultracentrifugation and subsequent quantitative analysis by refractometry or by analytic ultracentrifugal methodology. Apo A1, Apo B and hsCRP can be determined from serum using standard nephelometry techniques. Lipoprotein (a) can be determined from serum using standard turbidimetric immunoassay techniques. LDL particle number and particle size can be determined using nuclear magnetic resonance (NMR) spectrometry. Remnants lipoproteins and LDL-phospholipase A2 can be determined from EDTA plasma or serum and serum, respectively, using enzymatic immunoseparation techniques. Oxidized LDL, intercellular adhesion molecule-1 and interleukin-2 levels can be determined from serum using standard enzyme immunoassay techniques. These techniques are described in detail in standard textbooks, for example Tietz Fundamentals of Clinical Chemistry, 6th Ed. (Burtis, Ashwood and Borter Eds.), WB Saunders Company. […]

[2] = system: FPG, HbA1c, insulin and HOMA-IR; assay: Diabetes parameters (FPG, HbA1c, insulin, HOMA-IR) in patients with diabetes mellitus-2 (Example 2); details: 4 g/day
Procedure: The effect of >96% E-EPA on lipid and inflammatory parameters was evaluated in patients with fasting triglyceride levels ≧150 mg/dl and <499 mg/dl on concomitant statin therapy. Patients with diabetes mellitus-2 were randomized and treated with either 2 g/day >96% E-EPA, 4 g/day >96%, or placebo for twelve weeks. At the end of the treatment period, several diabetes efficacy endpoints were evaluated including, TG, LDL-C, non-HDL-C, VLDL-C, Lp-PLA2, Apo B, TC, HDL-C, VLDL-TG, hs-CRP, oxLDL, and RLP-C.

[3] = system: Lp-PLA2; assay: ANCHOR study, Lp-PLA2; details: ANCHOR ITT, week 12
Text: Parameters (a)-(y) can be measured in accordance with any clinically acceptable methodology. For example, triglycerides, total cholesterol, HDL-C and fasting blood sugar can be sample from serum and analyzed using standard photometry techniques. VLDL-TG, LDL-C and VLDL-C can be calculated or determined using serum lipoprotein fractionation by preparative ultracentrifugation and subsequent quantitative analysis by refractometry or by analytic ultracentrifugal methodology. Apo A1, Apo B and hsCRP can be determined from serum using standard nephelometry techniques. Lipoprotein (a) can be determined from serum using standard turbidimetric immunoassay techniques. LDL particle number and particle size can be determined using nuclear magnetic resonance (NMR) spectrometry. Remnants lipoproteins and LDL-phospholipase A2 can be determined from EDTA plasma or serum and serum, respectively, using enzymatic immunoseparation techniques. Oxidized LDL, intercellular adhesion molecule-1 and interleukin-2 levels can be determined from serum using standard enzyme immunoassay techniques. These techniques are described in detail in standard textbooks, for example Tietz Fundamentals of Clinical Chemistry, 6th Ed. (Burtis, Ashwood and Borter Eds.), WB Saunders Company.
A multi-center, placebo-controlled, randomized, double-blind, 12-week study was performed to evaluate the efficacy and safety of >96% E-EPA in patients with fasting triglyceride levels ≧200 mg/dl and <500 mg/dl despite statin therapy (the mean of two qualifying entry values needed to be ≧185 mg/dl and at least one of the values needs to be ≧200 mg/dl). The primary objective of the study was to determine the efficacy of >96% E-EPA 2 g daily and 4 g daily, compared to placebo, in lowering fasting TG levels in patients with high risk for cardiovascular disease and with fasting TG levels ≧200 mg/dL and <500 mg/dL, despite treatment to LDL-C goal on statin therapy. […]

In the case of CC/C=C\C/C=C\C/C=C\C/C=C\C/C=C\CCCC(=O)OCC [AMR101, all-cis eicosa-5,8,11,14,17-pentaenoic acid ethyl ester], the “Lp-PLA2 change from baseline (median)” value [1] was −5.1%, the Glycemic control ([2]; twelve weeks) was “did not worsen glycemic control” and the “Changes in diabetes parameters including FPG, HbA1c, insulin and HOMA-IR” value ([2]; well-controlled, less-controlled and all diabetic subjects, FIG. 4) was “no statistically significant changes”. For the same compound, the “Lp-PLA2 change from baseline (median)” value ([3]; 2 g/day) was −1.8%, the “Lp-PLA2 change from baseline (median)” value ([3]; 4 g/day) was −12.8% and the “Lp-PLA2 end-of-treatment value (median)” value ([3]; 4 g/day) was 160.0 ng/mL.
